Test results taken from patent US20250084056A1, “SUBSTITUTED OXOISOINDOLINYL PIPERIDINE-2,6-DIONE COMPOUNDS” (BRISTOL-MYERS SQUIBB COMPANY, priority 2023, published 2025).

Key:
Phospho-Rb (Ser807/811) = assay: Phospho-Retinoblastoma (pRB) Cellular Assay; format: cell-based; conditions: Homo sapiens, OVCAR-3, NIH OVCAR3 cells, 24 hours
Method in brief: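 OVCAR3 cells seeded overnight, then dosed with serial dilutions for 24 h at 37° C. Lysed with kit mix plus phosphatase inhibitor, ≥4 h at room temperature, read on EnVision; 100% response set by reference compound at 10 μM, giving IC50 and Ymax.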

GSPT1 = GSPT1 (Homo sapiens, UniProt P15170+Q96SW2); assay: GSPT1 Cellular Degradation Assay (DF15-GSPT1-ePL); format: cell-based; parameters: expressed in transfected cells; conditions: DF15-GSPT1-ePL cells, 20 hours
Chain of GSPT1 (P15170 whole entry, the tested form may be a part): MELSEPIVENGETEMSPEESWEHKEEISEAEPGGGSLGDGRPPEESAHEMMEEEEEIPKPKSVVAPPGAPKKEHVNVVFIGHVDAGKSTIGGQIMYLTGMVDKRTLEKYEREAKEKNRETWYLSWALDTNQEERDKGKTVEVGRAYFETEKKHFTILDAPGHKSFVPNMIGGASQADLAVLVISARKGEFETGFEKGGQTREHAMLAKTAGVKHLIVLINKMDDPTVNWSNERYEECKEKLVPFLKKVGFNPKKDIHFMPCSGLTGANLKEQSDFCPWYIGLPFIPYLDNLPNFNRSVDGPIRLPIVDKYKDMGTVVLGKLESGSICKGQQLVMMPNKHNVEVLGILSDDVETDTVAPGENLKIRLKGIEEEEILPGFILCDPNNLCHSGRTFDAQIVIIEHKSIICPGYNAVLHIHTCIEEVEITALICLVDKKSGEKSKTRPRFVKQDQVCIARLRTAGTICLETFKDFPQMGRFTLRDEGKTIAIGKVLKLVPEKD
Chain of GSPT1 (Q96SW2 whole entry, the tested form may be a part): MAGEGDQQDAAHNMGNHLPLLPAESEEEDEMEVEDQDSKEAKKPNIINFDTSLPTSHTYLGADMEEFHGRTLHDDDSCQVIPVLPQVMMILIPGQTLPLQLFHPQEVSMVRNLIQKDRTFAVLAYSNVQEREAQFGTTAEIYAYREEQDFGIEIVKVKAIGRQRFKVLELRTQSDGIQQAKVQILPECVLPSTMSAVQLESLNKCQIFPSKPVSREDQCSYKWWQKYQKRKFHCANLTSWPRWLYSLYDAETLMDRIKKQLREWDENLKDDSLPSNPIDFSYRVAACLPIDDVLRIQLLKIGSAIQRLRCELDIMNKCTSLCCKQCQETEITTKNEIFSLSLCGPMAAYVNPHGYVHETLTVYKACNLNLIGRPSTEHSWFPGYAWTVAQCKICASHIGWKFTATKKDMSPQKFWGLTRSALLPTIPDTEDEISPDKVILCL
Chain of GSPT1 (Q16531 whole entry partner, the tested form may be a part): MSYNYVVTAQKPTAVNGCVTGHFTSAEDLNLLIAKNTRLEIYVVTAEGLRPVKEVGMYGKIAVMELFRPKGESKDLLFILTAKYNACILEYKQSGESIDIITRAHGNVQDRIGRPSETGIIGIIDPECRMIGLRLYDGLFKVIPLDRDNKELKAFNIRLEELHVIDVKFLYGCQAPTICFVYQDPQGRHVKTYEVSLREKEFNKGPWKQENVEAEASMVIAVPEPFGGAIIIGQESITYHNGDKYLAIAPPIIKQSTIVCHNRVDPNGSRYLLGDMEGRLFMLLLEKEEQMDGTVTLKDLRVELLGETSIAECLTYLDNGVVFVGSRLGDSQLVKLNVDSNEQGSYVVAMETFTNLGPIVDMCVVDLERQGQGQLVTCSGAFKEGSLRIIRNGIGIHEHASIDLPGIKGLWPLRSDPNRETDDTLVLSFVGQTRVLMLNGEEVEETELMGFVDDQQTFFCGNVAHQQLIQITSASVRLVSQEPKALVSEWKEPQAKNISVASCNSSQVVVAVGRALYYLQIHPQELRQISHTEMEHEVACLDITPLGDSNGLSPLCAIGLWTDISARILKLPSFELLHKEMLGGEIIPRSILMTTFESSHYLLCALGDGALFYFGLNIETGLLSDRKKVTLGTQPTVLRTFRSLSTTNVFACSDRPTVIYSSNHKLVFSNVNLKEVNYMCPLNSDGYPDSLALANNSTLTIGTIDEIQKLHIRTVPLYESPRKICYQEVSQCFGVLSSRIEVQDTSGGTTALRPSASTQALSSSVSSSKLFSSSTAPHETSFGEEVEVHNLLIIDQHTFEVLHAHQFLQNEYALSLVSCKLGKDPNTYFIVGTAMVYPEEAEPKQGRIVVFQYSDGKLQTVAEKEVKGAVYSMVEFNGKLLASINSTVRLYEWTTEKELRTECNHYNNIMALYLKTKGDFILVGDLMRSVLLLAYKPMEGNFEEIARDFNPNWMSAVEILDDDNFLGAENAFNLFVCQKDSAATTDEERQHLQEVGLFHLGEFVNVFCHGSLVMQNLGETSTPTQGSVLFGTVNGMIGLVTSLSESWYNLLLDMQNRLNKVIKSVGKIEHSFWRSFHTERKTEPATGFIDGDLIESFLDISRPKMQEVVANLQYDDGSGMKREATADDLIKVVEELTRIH
Method in brief: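 Human DF15 cells co-expressing a GSPT1–ePL fusion were treated with compound in RPMI 1640/10% FBS for 20 h at 37 °C. GSPT1 level was read by enzyme-fragment-complementation luminescence after 60 min with detection reagent. The reference degrader at […] defined 75% response; DC50 and Dmax were reported.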

IC50 (Phospho-Rb (Ser807/811); concentration giving 50% response): 85 nM
DC50 (GSPT1): > 14000 nM
Dmax (GSPT1): 46%
Structure (SMILES): COc1c(COC(=O)Nc2ccc(Oc3ccc(F)c(F)c3)cc2)ccc2c1C(=O)N([C@H]1CCC(=O)NC1=O)C2 (single isomer, unassigned) [Example 35, {2-[(3 S)-2,6-dioxopiperidin-3-yl]-4-methoxy-3-oxo-2,3-dihydro-1H-isoindol-5-yl}methyl N-[4-(3,4-difluorophenoxy)phenyl]carbamate]
Emax (Phospho-Rb (Ser807/811); maximum response, reference compound at 10 μM = 100%, read-out: pRB Ymax): 114%
